Experimental data from the SangsterLogP compilation.

Assay: method code SF-AS, from DOI: 10.1016/s0006-291x(89)80063-4, PMID: 2916990
Settings: pH 7.5

Structure (SMILES) | logD
Nc1nc2c(ncn2[C@H]2C=C[C@@H](CO)O2)c(=O)[nH]1 | -1.21
O=c1ccn([C@H]2C[C@H](F)[C@@H](CO)O2)c(=O)[nH]1 | -0.49
[N-]=[N+]=N[C@H]1C[C@H](n2cnc3c(=O)[nH]c(N)nc32)O[C@@H]1CO | -0.33
Nc1nc2c(ncn2[C@H]2CC[C@@H](CO)O2)c(=O)[nH]1 | -1.01
O=c1[nH]c(=O)n([C@H]2C[C@H](F)[C@@H](CO)O2)cc1Cl | -0.17
O=c1ccn([C@H]2C[C@H](O)[C@@H](CO)O2)c(=O)[nH]1 | -1.51
[N-]=[N+]=N[C@@H]1[C@H](N=[N+]=[N-])[C@@H](CO)O[C@H]1n1cnc2c(N)ncnc21 | 0.8
O=c1[nH]c(=O)n([C@H]2CC[C@@H](CO)O2)cc1I | -0.61
Nc1nc2c(ncn2[C@H]2C[C@H](F)[C@@H](CO)O2)c(=O)[nH]1 | -0.66
Nc1ncnc2c1ncn2[C@H]1C[C@H](F)[C@@H](CO)O1 | 0.08
O=c1ccn([C@H]2C=C[C@@H](CO)O2)c(=O)[nH]1 | -1.07
O=c1[nH]c(=O)n([C@H]2CC[C@@H](CO)O2)cc1Cl | -1.11
O=c1[nH]c(=O)n([C@H]2C[C@H](F)[C@@H](CO)O2)cc1Br | -0.04
Nc1nc(N)c2ncn([C@H]3C[C@H](O)[C@@H](CO)O3)c2n1 | -0.52
[N-]=[N+]=N[C@H]1C[C@H](n2cnc3c(N)ncnc32)O[C@@H]1CO | 0.35
Nc1ncnc2c1ncn2[C@H]1C=C[C@@H](CO)O1 | -0.36
Nc1nc(N)c2ncn([C@H]3CC(F)[C@@H](CO)O3)c2n1 (stereo partly specified) | 0.05
O=c1[nH]c(=O)n([C@H]2CC[C@@H](CO)O2)cc1Br | -0.99
O=c1ccn(C2CCC(CO)O2)c(=O)[nH]1 (stereo unspecified) | -0.89
[N-]=[N+]=N[C@H]1C[C@H](n2ccc(N)nc2=O)O[C@@H]1CO | -0.64
[N-]=[N+]=N[C@H]1C[C@H](n2cnc3c(N)nc(N)nc32)O[C@@H]1CO | 0.24
